# Experimental data from patent US10406169B2, “Methods of monitoring estriol therapy” (The Regents of the University of California, priority 2015, dated 2019).
# Assays:
# Type in all cases: in vivo, human
# [1] = test system: relapsing-remitting multiple sclerosis; experiment: Multiple Sclerosis Functional Composite (PASAT3, 9-hole peg, 25-foot walk); parameters: PASAT3 score, Mean ± SD / PASAT3 score, Median / PASAT3 score change from baseline, Mean ± SD / PASAT3 score change from baseline, Median: scale not given here; 25-foot Walk Time change from baseline, Mean ± SD / 25-foot Walk Time change from baseline, Median: unit not given here
# Excerpt: Tertiary end points included gray matter atrophy on MRI, and changes in results from baseline on questionnaires including the Modified Fatigue Impact Scale, Beck Depression Inventory, and MS Quality of Life. Mixed effects negative binomial regression model and linear mixed effects model were used to compare enhancing lesion volume (log-transformed) between treatment groups at all follow-ups, and mixed effects logistic model was used to compare the number of subjects positive for gadolinium enhancing lesions. Linear mixed effects model was carried out to compare the percent change in whole gray matter and cortical gray matter between treatment groups. […] Mixed effects models were used to assess the association among outcomes and estriol levels at all follow-ups and using subjects in both treatment groups. Mixed effects logistic regression model was used to evaluate the association between the number of enhancing lesions and the occurrence of relapse at all follow-up intervals. Linear mixed effects model was carried out to evaluate the association between PASAT change and percent brain volume change, as well as between PASAT change and estriol levels.
# [2] = test system: relapsing-remitting multiple sclerosis; experiment: Disability and questionnaire outcomes (EDSS, MFIS, BDI, MSQOL); settings: for Proportion of pts with disability (EDSS) progression at 24 months % (95% CI): Kaplan-Meier
# Description: EDSS assessments were performed by physicians who were trained either by in-person training or online (www.Neurostatus.net). […] Tertiary end points included gray matter atrophy on MRI, and changes in results from baseline on questionnaires including the Modified Fatigue Impact Scale, Beck Depression Inventory, and MS Quality of Life. Mixed effects negative binomial regression model and linear mixed effects model were used to compare enhancing lesion volume (log-transformed) between treatment groups at all follow-ups, and mixed effects logistic model was used to compare the number of subjects positive for gadolinium enhancing lesions. Linear mixed effects model was carried out to compare the percent change in whole gray matter and cortical gray matter between treatment groups.
# [3] = test system: relapsing-remitting multiple sclerosis; experiment: Confirmed relapses (annualized relapse rate, time to first relapse); settings: for Annualized relapse rate in 12 months, Rate (95% CI) / Annualized relapse rate in 24 months, Rate (95% CI): negative binomial regression
# Description: The primary efficacy end point was the annualized relapse rate. A relapse was defined as the appearance of new neurological symptoms or the worsening of pre-existing symptoms, lasting at least 48 hours in a subject who had been neurologically stable or improving in the previous 30 days, accompanied by an objective change in a neurological examination (i.e., a worsening of 0.5 or more points on the EDSS or a worsening by 1.0 or more points on the pyramidal, cerebellar, brainstem or visual functional system scores, not due to fatigue alone and not associated with fever or infection). […] Both treating and examining physicians were unaware of study group assignments. The standard treatment for relapse was a 3-5 day course of glucocorticoids at the discretion of the treating neurologist.
# Intention-to-treat analyses were carried out for all end points. […] To control the overall type I error, a sequential testing procedure was applied. […] Consistent with a phase 2 study using a clinical outcome, a p-value<0.10 was considered statistically significant.
# For the time to first relapse analysis, Kaplan Meier curves and log-rank test were used to estimate and compare the relapse free probabilities of the two treatment groups. Cox proportional hazards model was used to compare the time to relapse free probabilities between two groups adjusting for covariates. […] The random effect of subject is included in the model to account for within subject correlation.
# For the primary endpoint, the main analysis seeks to compare the relapse event rate between treatment groups based on the negative binomial regression. As a sensitivity analysis, recurrent events analysis was performed based on Andersen Gill model to compare the relapse hazard rate between treatment groups.
# [4] = Month 24 (second line, N = 60 / 55)
# [5] = Month 24 as printed (first of two lines, N = 70 / 60)
# [6] = Patients with baseline score <55, Baseline
# [7] = Patients with baseline score <55, Month 12
# [8] = Patients with baseline score <55, Month 24
# [9] = 24 months, negative = improvement
substance,measurement,setting,value
glatiramer acetate [Placebo + GA],"PASAT3 score, Mean ± SD","[1]; All patients, Baseline",52.3 ± 9.1
same,"PASAT3 score, Median","[1]; All patients, Baseline",56
same,"PASAT3 score % change from baseline, Mean ± SD","[1]; All patients, Month 12",0.8 ± 9.9%
same,"PASAT3 score % change from baseline, Median","[1]; All patients, Month 12",0%
same,"PASAT3 score change from baseline, Mean ± SD","[1]; All patients, Month 12",0.1 ± 4.5
same,"PASAT3 score change from baseline, Median","[1]; All patients, Month 12",0
same,"PASAT3 score % change from baseline, Mean ± SD","[1]; All patients, Month 24",2.7 ± 10.3%
same,"PASAT3 score % change from baseline, Median","[1]; All patients, Month 24",0%
same,"PASAT3 score change from baseline, Mean ± SD","[1]; All patients, Month 24",1.1 ± 4.3
same,"PASAT3 score change from baseline, Median","[1]; All patients, Month 24",0
same,"9-Hole Peg Test, Mean ± SD",[1]; Baseline,19.1 ± 2.7
same,"9-Hole Peg Test, Median",[1]; Baseline,18.8
same,"25-foot Walk Time, Median",[1]; Baseline,4.5 s
same,"MSFC Score, Mean ± SD",[1]; Baseline,0.06 ± 0.79
same,"MSFC Score, Median",[1]; Baseline,0.24
same,"25-foot Walk Time, Mean ± SD","[1]; Baseline, in s (unit assumed)",4.9 ± 1.5
same,"9-Hole Peg Test change from baseline, Mean ± SD",[1]; Month 12,−0.1 ± 1.8
same,"9-Hole Peg Test change from baseline, Median",[1]; Month 12,−0.4
same,"MSFC Score change from baseline, Mean ± SD",[1]; Month 12,0.06 ± 0.38
same,"9-Hole Peg Test change from baseline, Mean ± SD",[1]; Month 24,−0.4 ± 1.5
same,"9-Hole Peg Test change from baseline, Median",[1]; Month 24,−0.5
same,"MSFC Score change from baseline, Mean ± SD",[1]; Month 24,0.09 ± 0.43
same,"25-foot Walk Time change from baseline, Mean ± SD",[1]; [4],0.1 ± 1.1
same,"25-foot Walk Time change from baseline, Median",[1]; [4],0.1
same,"25-foot Walk Time change from baseline, Mean ± SD",[1]; [5],0.0 ± 0.9
same,"25-foot Walk Time change from baseline, Median",[1]; [5],0.0
same,"PASAT3 score, Mean ± SD",[1]; [6],44.7 ± 9.1
same,"PASAT3 score, Median",[1]; [6],49
same,"PASAT3 score % change from baseline, Mean ± SD",[1]; [7],4.0 ± 14.0%
same,"PASAT3 score % change from baseline, Median",[1]; [7],3.8%
same,"PASAT3 score change from baseline, Mean ± SD",[1]; [7],1.6 ± 6.0
same,"PASAT3 score change from baseline, Median",[1]; [7],1.0
same,"PASAT3 score % change from baseline, Mean ± SD",[1]; [8],6.9 ± 14.7%
same,"PASAT3 score % change from baseline, Median",[1]; [8],9.1%
same,"PASAT3 score change from baseline, Mean ± SD",[1]; [8],3.0 ± 5.9
same,"PASAT3 score change from baseline, Median",[1]; [8],4.0
same,Beck Depression Inventory (BDI) score median change from baseline,[2]; [9],−3.5
same,MFIS score median change from baseline,[2]; [9],0
same,Proportion of pts with disability (EDSS) progression at 24 months % (95% CI),[2],15.8 (8.8-27.6) %
same,Proportion of pts with disability (EDSS) progression at 24 months % (95% CI),[2]; listed as Placebo plus GA,15.8%
same,MSQOL composite scores for Physical outcomes,[2]; change from baseline,no change
same,"EDSS score reduction from baseline to Month 24, Mean ± SD",[2]; in vivo,0.05 ± 1.13
same,"EDSS score reduction from baseline to Month 24, Median",[2]; in vivo,0.0
same,EDSS absolute median change from baseline,"[2]; month 24, negative = improvement",0
same,Proportion of pts with relapse at 12 months % (95% CI),[3]; Kaplan-Meier,33.1 (23.5-45.2) %
same,Proportion of pts with relapse at 24 months % (95% CI),[3]; Kaplan-Meier,42.9 (32.1-55.5) %
same,"Annualized relapse rate in 12 months, Rate (95% CI)",[3],0.48 (0.33-0.69)
same,"Annualized relapse rate in 24 months, Rate (95% CI)",[3],0.37 (0.25-0.53)
same,"Annualized relapse rate in 12 months, Rate (95% CI)",[3]; listed as Placebo+GA,0.48
same,"Annualized relapse rate in 24 months, Rate (95% CI)",[3]; listed as Placebo+GA,0.37
